What all share (type): cell-based
For one test, the target named is T1, human TLR7 (Homo sapiens, UniProt Q9NYK1).
T1 construct: host or cells: HEK-Blue cells
T1 sequence (Q9NYK1 27-1049): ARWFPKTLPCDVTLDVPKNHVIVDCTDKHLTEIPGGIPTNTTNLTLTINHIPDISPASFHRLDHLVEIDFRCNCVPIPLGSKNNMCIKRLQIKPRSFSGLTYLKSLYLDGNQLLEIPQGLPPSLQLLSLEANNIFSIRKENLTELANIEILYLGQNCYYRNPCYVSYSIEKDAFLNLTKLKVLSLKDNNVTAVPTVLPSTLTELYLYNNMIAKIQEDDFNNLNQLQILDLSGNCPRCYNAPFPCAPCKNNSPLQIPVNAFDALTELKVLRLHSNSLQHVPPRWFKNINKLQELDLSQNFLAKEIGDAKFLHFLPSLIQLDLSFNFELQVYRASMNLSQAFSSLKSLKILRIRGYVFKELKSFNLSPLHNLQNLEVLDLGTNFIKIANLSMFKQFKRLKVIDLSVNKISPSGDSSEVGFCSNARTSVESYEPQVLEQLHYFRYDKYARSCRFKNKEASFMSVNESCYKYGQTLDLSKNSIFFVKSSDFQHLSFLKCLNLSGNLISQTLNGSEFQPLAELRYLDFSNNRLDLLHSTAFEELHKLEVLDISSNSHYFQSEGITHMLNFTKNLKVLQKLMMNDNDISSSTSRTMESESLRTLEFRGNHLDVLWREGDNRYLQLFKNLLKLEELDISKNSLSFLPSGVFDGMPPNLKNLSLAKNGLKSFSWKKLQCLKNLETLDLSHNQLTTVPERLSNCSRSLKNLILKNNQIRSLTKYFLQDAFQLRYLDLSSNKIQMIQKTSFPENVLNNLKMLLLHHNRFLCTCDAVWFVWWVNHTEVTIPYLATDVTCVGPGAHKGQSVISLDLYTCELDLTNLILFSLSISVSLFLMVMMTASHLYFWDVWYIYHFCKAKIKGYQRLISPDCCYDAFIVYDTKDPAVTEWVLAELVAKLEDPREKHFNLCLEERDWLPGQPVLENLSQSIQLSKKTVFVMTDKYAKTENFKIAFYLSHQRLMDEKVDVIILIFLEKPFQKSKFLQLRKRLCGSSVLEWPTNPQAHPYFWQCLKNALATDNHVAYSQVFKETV
The experiment in a line: TLR7 inhibition reporter assay (HEK-Blue SEAP reporter). To be noted: HEK-Blue cells overexpressing human TLR7; gardiquimod 7.5 μM; 22 hour incubation. In outline: (§1)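 HEK-Blue cells overexpressing human TLR7, TLR8 or TLR9 carry a SEAP reporter driven by NF-κB/AP-1 sites. Compounds (0.05 nM–50 μM) were preincubated 30 min at room temperature, then cells were stimulated with gardiquimod 7.5 μM (TLR7), R848 15.9 μM (TLR8) or ODN2006 5 nM (TLR9) for 22 h at 37 °C.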
For orientation: In a reporter assay the amount or activity of a reporter protein is the signal.

For a further test, the target named is T2, human TLR8 (Homo sapiens, UniProt Q9NR97).
T2 construct: host or cells: HEK-Blue cells
T2 sequence (Q9NR97 27-1041): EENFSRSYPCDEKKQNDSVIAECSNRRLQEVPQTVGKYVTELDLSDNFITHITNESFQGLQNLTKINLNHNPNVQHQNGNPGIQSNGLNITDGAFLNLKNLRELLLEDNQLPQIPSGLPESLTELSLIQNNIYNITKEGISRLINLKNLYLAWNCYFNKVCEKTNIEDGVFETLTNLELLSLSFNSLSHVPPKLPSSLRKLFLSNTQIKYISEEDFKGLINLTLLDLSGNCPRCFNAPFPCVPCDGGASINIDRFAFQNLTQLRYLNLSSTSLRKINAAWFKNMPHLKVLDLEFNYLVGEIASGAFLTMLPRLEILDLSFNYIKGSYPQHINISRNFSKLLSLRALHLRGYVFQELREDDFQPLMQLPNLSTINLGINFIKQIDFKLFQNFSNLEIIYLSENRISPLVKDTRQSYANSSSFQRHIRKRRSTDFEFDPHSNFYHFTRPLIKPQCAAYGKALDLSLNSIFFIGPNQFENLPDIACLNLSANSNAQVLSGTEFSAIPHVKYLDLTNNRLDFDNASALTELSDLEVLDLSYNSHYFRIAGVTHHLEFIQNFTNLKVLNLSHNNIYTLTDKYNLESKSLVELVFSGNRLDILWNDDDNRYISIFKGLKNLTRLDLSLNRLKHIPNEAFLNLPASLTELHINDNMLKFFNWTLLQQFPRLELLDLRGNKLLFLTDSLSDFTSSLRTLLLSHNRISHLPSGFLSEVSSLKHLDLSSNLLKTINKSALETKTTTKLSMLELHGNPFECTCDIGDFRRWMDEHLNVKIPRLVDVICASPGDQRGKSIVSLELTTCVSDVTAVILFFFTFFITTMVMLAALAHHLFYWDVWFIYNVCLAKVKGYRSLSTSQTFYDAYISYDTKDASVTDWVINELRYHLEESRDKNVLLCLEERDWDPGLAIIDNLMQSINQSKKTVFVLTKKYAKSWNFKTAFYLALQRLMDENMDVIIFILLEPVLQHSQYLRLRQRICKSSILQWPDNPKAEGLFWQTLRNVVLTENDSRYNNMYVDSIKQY
Briefly: TLR8 inhibition reporter assay (HEK-Blue SEAP reporter). To be noted: HEK-Blue cells overexpressing human TLR8; R848 15.9 μM; 22 hour incubation. In short, it runs like this: as §1

The next test deals with T3, human TLR9 (Homo sapiens, UniProt Q9NR96).
T3 construct: host or cells: HEK-Blue cells
T3 sequence (Q9NR96 26-1032): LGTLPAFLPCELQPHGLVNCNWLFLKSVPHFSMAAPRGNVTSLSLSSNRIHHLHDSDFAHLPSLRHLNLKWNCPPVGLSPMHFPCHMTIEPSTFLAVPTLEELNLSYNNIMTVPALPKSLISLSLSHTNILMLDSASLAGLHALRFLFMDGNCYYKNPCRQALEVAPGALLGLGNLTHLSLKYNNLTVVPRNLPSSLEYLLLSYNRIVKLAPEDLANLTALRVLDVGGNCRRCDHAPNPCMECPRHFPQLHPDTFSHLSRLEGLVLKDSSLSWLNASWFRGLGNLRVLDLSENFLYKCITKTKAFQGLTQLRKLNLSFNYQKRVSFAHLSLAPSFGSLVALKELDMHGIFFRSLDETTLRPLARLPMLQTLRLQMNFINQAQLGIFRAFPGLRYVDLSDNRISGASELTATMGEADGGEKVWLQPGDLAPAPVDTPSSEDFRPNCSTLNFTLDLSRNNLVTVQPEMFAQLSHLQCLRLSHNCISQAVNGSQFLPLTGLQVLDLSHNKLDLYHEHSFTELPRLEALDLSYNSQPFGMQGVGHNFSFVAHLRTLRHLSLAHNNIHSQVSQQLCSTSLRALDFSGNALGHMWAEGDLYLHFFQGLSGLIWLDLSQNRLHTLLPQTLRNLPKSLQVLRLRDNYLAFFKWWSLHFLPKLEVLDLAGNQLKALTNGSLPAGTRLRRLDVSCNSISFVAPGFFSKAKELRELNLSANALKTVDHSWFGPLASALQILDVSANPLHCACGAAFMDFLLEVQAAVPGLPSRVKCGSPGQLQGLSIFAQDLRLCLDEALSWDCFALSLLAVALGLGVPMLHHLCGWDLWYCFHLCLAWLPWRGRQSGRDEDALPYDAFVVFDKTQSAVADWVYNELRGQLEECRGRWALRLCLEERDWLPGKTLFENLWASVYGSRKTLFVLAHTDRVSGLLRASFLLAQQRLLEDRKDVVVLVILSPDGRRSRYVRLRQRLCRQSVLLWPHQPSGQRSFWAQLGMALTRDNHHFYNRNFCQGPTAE
The experiment in a line: TLR9 inhibition reporter assay (HEK-Blue SEAP reporter). To be noted: HEK-Blue cells overexpressing human TLR9; ODN2006 5 nM; 22 hour incubation. In outline: as §1

Counter-ions that a name gives are not always drawn.

`COc1ccc(-c2[nH]c3ccc(N4CCCC5CN(Cc6ccccc6)CC54)cc3c2C(C)C)cc1OC` (stereo not drawn) [Example 118, 6-benzyl-1-(2-(3,4-dimethoxyphenyl)-3-isopropyl-1H-indol-5-yl)octahydro-1H-pyrrolo[3,4-b]pyridine]: the IC50 came to 1120 nM at human TLR7, 325 nM against human TLR8 and 1760 nM against human TLR9.

On to `COc1ccc(-c2[nH]c3ccc(N4CCC(C5c6ccccc6CCN5C)CC4)cc3c2C(C)C)cc1OC` (stereo not drawn) [Example 119, 1-(1-(2-(3,4-dimethoxyphenyl)-3-isopropyl-1H-indol-5-yl)piperidin-4-yl)-2-methyl-1,2,3,4-tetrahydroisoquinoline], for which the results for the IC50 on human TLR7, on human TLR8 and on human TLR9 were 1400 nM, 24 nM and 2300 nM, respectively.

For the compound `COc1ccc(-c2[nH]c3ccc(N4CCC(N(C)C)C4)cc3c2C(C)C)cc1OC` (stereo not drawn) [Example 120, 1-(2-(3,4-dimethoxyphenyl)-3-isopropyl-H-indol-5-yl)-N,N-dimethylpyrrolidin-3-amine], the IC50 on human TLR7 turned out to be 118 nM; on human TLR8 it was 17 nM; on human TLR9 it was 3290 nM.

For the compound `COc1ccc(-c2[nH]c3ccc(N4CCC(N5CCCNCC5)CC4)cc3c2C(C)C)cc1OC` [Example 121, 5-(4-(1,4-diazepan-1-yl)piperidin-1-yl)-2-(3,4-dimethoxyphenyl)-3-isopropyl-1H-indole], the results for the IC50 against human TLR7, at human TLR8 and on human TLR9 were 15 nM, 5.2 nM and 993 nM, respectively.

As for `COc1ccc(-c2[nH]c3ccc(N4CCN(C5CCCN(C(C)C)CC5)CC4)cc3c2C(C)C)cc1OC` (stereo not drawn) [Example 122, 2-(3,4-dimethoxyphenyl)-3-isopropyl-5-(4-(1-isopropylazepan-4-yl)piperazin-1-yl)-1H-indole], the results for the IC50 against human TLR7, against human TLR8 and against human TLR9 were 42 nM, 3.4 nM and 621 nM, respectively.

Take `COc1ccc(-c2[nH]c3ccc(N4CCNCC4)cc3c2C(C)C)cc1OC` [Example 126, 2-(3,4-dimethoxyphenyl)-3-isopropyl-5-(piperazin-1-yl)-1H-indole, TFA Salt]: the IC50 against human TLR7 was 53 nM; against human TLR8 it was 14 nM; against human TLR9, 4740 nM.

For the compound `CNCCN1CCN(c2ccc3[nH]c(-c4ccc(OC)c(OC)c4)c(C(C)C)c3c2)CC1` [Example 127, 2-(4-(2-(3,4-dimethoxyphenyl)-3-isopropyl-1H-indol-5-yl)piperazin-1-yl)-N-methylethanamine], the 50% inhibitory concentration (IC50) against human TLR7 turned out to be 45 nM; against human TLR8, 15 nM; against human TLR9, 6320 nM.

`CC(C)c1c(-c2ccnc3[nH]ccc23)[nH]c2ccc(N3CCNCC3)cc12` [Example 128, 4-(3-isopropyl-5-(piperazin-1-yl)-1H-indol-2-yl)-1H-pyrrolo[2,3-b]pyridine]: the concentration for half-maximal inhibition (IC50) against human TLR7 is 2.3 nM; at human TLR8, 0.41 nM; against human TLR9, 8100 nM.

On to `CCc1c(-c2cc(OC)nc(OC)c2)[nH]c2ccc(N3CCNCC3)cc12` [Example 129, 2-(2,6-dimethoxypyridin-4-yl)-3-ethyl-5-(piperazin-1-yl)-1H-indole], for which the IC50 worked out at 75 nM at human TLR7, 22 nM at human TLR8 and 3320 nM against human TLR9.

As for `Cc1cc2[nH]c(-c3ccnc4[nH]ncc34)c(C(C)C)c2cc1N1CCNCC1` [Example 130, 4-(3-isopropyl-6-methyl-5-(piperazin-1-yl)-1H-indol-2-yl)-1H-pyrazolo[3,4-b]pyridine], the IC50 against human TLR7 turned out to be 2 nM; against human TLR8, 7.8 nM; against human TLR9, 1160 nM.

On to `CCc1c(-c2ccc(OC)c(OC)c2)[nH]c2ccc(N3CCC(C4CCNCC4)CC3)cc12` [Example 131, 5-([4,4′-bipiperidin]-1-yl)-2-(3,4-dimethoxyphenyl)-3-ethyl-1H-indole], for which the IC50 turned out to be 187 nM against human TLR7, 132 nM against human TLR8 and 648 nM on human TLR9.

As to `COc1ccc(-c2[nH]c3ccc(N4CCC(OC5CCNCC5)CC4)cc3c2C(C)C)cc1OC` [Example 133, 2-(3,4-dimethoxyphenyl)-3-isopropyl-5-(4-(piperidin-4-yloxy)piperidin-1-yl)-1H-indole], the IC50 on human TLR7 is 16 nM; against human TLR8, 55 nM; at human TLR9, 339 nM.

On to `CCc1c(-c2ccc(OC)c(OC)c2)[nH]c2ccc(N3CCC(OC4CCN(C)CC4)CC3)cc12` [Example 134, 2-(3,4-dimethoxyphenyl)-3-ethyl-5-(4-((1-methylpiperidin-4-yl)oxy)piperidin-1-yl)-1H-indole], for which the IC50 on human TLR7 came out at 54 nM; on human TLR8, 94 nM; at human TLR9 it was 462 nM.

On to `COc1ccc(-c2[nH]c3ccc(N4CC5CCCNC5C4)cc3c2C(C)C)cc1OC` (stereo not drawn) [Example 135, 6-(2-(3,4-dimethoxyphenyl)-3-isopropyl-1H-indol-5-yl)octahydro-1H-pyrrolo[3,4-b]pyridine], for which the IC50 on human TLR7 came to 774 nM; against human TLR8 it was 95 nM; on human TLR9, 2460 nM.

In general, IC50 refers to the concentration that gives 50% inhibition. Read a high IC50 as weaker potency in that assay.

The values above are taken from US11306092B2, “Amino indole compounds useful as TLR inhibitors” (BRISTOL-MYERS SQUIBB COMPANY, priority 2017, dated 2022).
